Experiments:
[1] = molecular target: Mitogen-activated protein kinase 12 (Homo sapiens) (UniProt P53778); experiment: Inhibition of full length recombinant human SAPK3 at 100 uM in presence of ATP relative to control
Mus musculus = experiment: Toxicity in nude BALB/c mouse xenografted with human A2780 cells assessed as body weight loss at 30 mg/kg, ip administered once every 2 days for 14 consecutive days relative to control; type: organism-based; details: in vivo, 48 h
[2] = molecular target: Cyclin-dependent kinase 2/cyclin E1 (Homo sapiens) (UniProt P24864+P24941); experiment: Inhibition of recombinant human CDK2/CyclinE using Ulight-CFFKNIVTPRTPPPSQGK-amide as substrate at 100 uM after 30 mins in presence of ATP relative to control; type: protein-complex assay
[3] = molecular target: Vascular endothelial growth factor receptor 2 (Homo sapiens) (UniProt P35968); experiment: Inhibition of KDR (unknown origin) using poly (Glu, Tyr) 4:1 as substrate at 100 uM after 1 hr by ELISA relative to control
[4] = molecular target: Insulin-like growth factor 1 receptor (Homo sapiens) (UniProt P08069); experiment: Inhibition of IGF1R (unknown origin) using poly (Glu, Tyr) 4:1 as substrate at 100 uM after 1 hr by ELISA relative to control
Homo sapiens [5] = species on record: Homo sapiens; experiment: Inhibition of human PKA at 100 uM in presence of ATP relative to control
[6] = molecular target: RAC-alpha serine/threonine-protein kinase (Homo sapiens) (UniProt P31749); experiment: Inhibition of recombinant human PKBalpha using CREBtide (CKRREILSRRPSYRK) as substrate at 100 uM after 60 mins in presence of ATP relative to control
[7] = molecular target: Cyclin-dependent kinase 1/cyclin B1 (Homo sapiens) (UniProt P06493+P14635); experiment: Inhibition of recombinant human CDK1/CyclinB using Ulight-CFFKNIVTPRTPPPSQGK-amide as substrate at 100 uM after 15 mins in presence of ATP relative to control; type: protein-complex assay
[8] = molecular target: Mitogen-activated protein kinase 13 (Homo sapiens) (UniProt O15264); experiment: Inhibition of recombinant human SAPK4 using Ulight-CFFKNIVTPRTPPPSQGK-amide as substrate at 100 uM after 15 mins in presence of ATP relative to control
Homo sapiens [9] = species on record: Homo sapiens; experiment: Inhibition of recombinant human CK2 using Ulight-IkappaB-alpha as substrate at 100 uM after 60 mins in presence of ATP relative to control
Saccharomyces cerevisiae = experiment: Inhibition of yeast CK1 using poly (Glu, Tyr) 4:1 as substrate after 1 hr by ELISA relative to control; details: concentration not given here
[10] = molecular target: Platelet-derived growth factor receptor beta (Homo sapiens) (UniProt P09619); experiment: Inhibition of PDGFRbeta (unknown origin) using poly (Glu, Tyr) 4:1 as substrate at 100 uM after 1 hr by ELISA relative to control
A2780 [11] = experiment: Induction of apoptosis in human A2780 cells after 24 hrs by annexin V/propidium iodide staining based flow cytometry; type: functional, cell-based
[12] = molecular target: Platelet-derived growth factor receptor alpha (Homo sapiens) (UniProt P16234); experiment: Inhibition of PDGFRalpha (unknown origin) using poly (Glu, Tyr) 4:1 as substrate at 100 uM after 1 hr by ELISA relative to control
[13] = Toxicity in nude BALB/c mouse xenografted with human A2780 cells assessed as body weight loss at 50 mg/kg, ip administered once every 2 days for 14 consecutive days relative to control; type: organism-based; details: in vivo, 48 h
[14] = molecular target: Proto-oncogene tyrosine-protein kinase Src (Homo sapiens) (UniProt P12931); experiment: Inhibition of c-Src (unknown origin) using poly (Glu, Tyr) 4:1 as substrate at 100 uM after 1 hr by ELISA relative to control
[15] = molecular target: Hepatocyte growth factor receptor (Homo sapiens) (UniProt P08581); experiment: Inhibition of c-Met (unknown origin) using poly (Glu, Tyr) 4:1 as substrate at 100 uM after 1 hr by ELISA relative to control
cells = details: Homo sapiens, OVCA433, 48 h
Description: Antiproliferative activity against human OVCA433 cells measured after 48 hrs by MTT assay

A2780 [16] = experiment: Antitumor activity against human A2780 cells xenografted in BALB/c nude mouse assessed as tumor growth inhibition at 30 mg/kg, ip administered once every 2 days for 14 consecutive days relative to control; type: functional; details: read-out: TGI
A2780 [17] = experiment: Induction of apoptosis in human A2780 cells assessed as total apoptotic cells at 5 to 20 uM after 24 hrs by annexin V/propidium iodide staining based flow cytometry (reference value: 17.3%); type: functional
[18] = molecular target: Glycogen synthase kinase-3 beta (Homo sapiens, UniProt P49841); experiment: biochemical
Description: Inhibition of recombinant N-terminal His6-tagged human GSK3beta H350L mutant expressed in baculovirus infected Sf21 insect cells using polypeptide GS-2 as substrate after 30 mins in presence of ATP by kinase-glo luminescence assay

[19] = molecular target: Dual specificity mitogen-activated protein kinase kinase 1 (Homo sapiens) (UniProt Q02750); experiment: Inhibition of recombinant human MEK1 using inactivated ERK2 as substrate at 100 uM after 60 mins in presence of ATP relative to control
[20] = molecular target: Serine/threonine-protein kinase Chk1 (Homo sapiens) (UniProt O14757); experiment: Inhibition of recombinant human CHK1 using CREBtide as substrate at 100 uM after 30 mins in presence of ATP relative to control
A2780 [21] = experiment: Cell cycle arrest in human A2780 cells assessed as decrease in S phase after 48 hrs by propidium iodide staining based flow cytometry; type: functional
[22] = molecular target: Mitogen-activated protein kinase 8 (Homo sapiens) (UniProt P45983); experiment: Inhibition of human JNK1alpa1 using at 100 uM after 90 mins in presence of ATP relative to control
[23] = molecular target: 5'-AMP-activated protein kinase catalytic subunit alpha-1 (Homo sapiens) (UniProt Q13131); experiment: Inhibition of full length recombinant human AMPKalpha1 using AMARAASAAALARRR as substrate at 100 uM after 40 mins in presence of ATP relative to control
[24] = molecular target: Mitogen-activated protein kinase 1 (Homo sapiens) (UniProt P28482); experiment: Inhibition of human MAPK2 at 100 uM in presence of ATP relative to control
[25] = molecular target: ALK tyrosine kinase receptor (Homo sapiens) (UniProt Q9UM73); experiment: Inhibition of ALK (unknown origin) using poly (Glu, Tyr) 4:1 as substrate at 100 uM after 1 hr by ELISA relative to control
A2780 [26] = experiment: Cell cycle arrest in human A2780 cells assessed as decrease in G2/M phase after 48 hrs by propidium iodide staining based flow cytometry; type: functional
[27] = molecular target: Receptor tyrosine-protein kinase erbB-2 (Homo sapiens) (UniProt P04626); experiment: Inhibition of ErbB2 (unknown origin) using poly (Glu, Tyr) 4:1 as substrate at 100 uM after 1 hr by ELISA relative to control
[28] = molecular target: Fibroblast growth factor receptor 1 (Homo sapiens) (UniProt P11362); experiment: Inhibition of FGFR1 (unknown origin) using poly (Glu, Tyr) 4:1 as substrate at 100 uM after 1 hr by ELISA relative to control

Sequence of Platelet-derived growth factor receptor alpha (Homo sapiens) (P16234 whole entry): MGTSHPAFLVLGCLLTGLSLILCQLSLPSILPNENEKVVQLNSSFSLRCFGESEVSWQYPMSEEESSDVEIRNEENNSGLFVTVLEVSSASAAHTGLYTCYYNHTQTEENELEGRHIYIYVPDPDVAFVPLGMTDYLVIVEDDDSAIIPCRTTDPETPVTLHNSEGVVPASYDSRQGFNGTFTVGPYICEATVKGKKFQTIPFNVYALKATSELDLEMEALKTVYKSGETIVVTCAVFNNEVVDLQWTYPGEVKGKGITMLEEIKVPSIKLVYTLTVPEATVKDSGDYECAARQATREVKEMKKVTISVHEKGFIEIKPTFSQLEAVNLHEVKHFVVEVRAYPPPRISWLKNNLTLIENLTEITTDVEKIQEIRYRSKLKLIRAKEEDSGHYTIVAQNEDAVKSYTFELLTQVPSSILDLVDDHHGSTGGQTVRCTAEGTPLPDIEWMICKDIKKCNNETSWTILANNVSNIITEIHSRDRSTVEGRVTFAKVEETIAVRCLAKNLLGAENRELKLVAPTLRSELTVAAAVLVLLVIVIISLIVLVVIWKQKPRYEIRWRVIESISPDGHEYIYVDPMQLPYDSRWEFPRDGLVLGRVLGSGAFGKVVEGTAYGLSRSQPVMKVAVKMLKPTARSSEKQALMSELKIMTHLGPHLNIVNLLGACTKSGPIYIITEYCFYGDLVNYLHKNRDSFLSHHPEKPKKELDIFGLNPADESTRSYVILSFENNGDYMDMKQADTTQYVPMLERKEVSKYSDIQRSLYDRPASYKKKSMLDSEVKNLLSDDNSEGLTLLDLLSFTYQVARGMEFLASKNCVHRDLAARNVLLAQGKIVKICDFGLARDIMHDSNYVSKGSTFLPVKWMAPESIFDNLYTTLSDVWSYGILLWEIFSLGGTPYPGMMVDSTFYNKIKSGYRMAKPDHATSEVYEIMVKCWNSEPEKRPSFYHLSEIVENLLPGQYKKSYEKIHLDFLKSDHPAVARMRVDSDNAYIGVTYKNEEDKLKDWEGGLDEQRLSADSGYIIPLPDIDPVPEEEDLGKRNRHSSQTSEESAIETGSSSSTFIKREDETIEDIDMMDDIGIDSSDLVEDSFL
Sequence of ALK tyrosine kinase receptor (Homo sapiens) (Q9UM73 19-1620 limits assumed): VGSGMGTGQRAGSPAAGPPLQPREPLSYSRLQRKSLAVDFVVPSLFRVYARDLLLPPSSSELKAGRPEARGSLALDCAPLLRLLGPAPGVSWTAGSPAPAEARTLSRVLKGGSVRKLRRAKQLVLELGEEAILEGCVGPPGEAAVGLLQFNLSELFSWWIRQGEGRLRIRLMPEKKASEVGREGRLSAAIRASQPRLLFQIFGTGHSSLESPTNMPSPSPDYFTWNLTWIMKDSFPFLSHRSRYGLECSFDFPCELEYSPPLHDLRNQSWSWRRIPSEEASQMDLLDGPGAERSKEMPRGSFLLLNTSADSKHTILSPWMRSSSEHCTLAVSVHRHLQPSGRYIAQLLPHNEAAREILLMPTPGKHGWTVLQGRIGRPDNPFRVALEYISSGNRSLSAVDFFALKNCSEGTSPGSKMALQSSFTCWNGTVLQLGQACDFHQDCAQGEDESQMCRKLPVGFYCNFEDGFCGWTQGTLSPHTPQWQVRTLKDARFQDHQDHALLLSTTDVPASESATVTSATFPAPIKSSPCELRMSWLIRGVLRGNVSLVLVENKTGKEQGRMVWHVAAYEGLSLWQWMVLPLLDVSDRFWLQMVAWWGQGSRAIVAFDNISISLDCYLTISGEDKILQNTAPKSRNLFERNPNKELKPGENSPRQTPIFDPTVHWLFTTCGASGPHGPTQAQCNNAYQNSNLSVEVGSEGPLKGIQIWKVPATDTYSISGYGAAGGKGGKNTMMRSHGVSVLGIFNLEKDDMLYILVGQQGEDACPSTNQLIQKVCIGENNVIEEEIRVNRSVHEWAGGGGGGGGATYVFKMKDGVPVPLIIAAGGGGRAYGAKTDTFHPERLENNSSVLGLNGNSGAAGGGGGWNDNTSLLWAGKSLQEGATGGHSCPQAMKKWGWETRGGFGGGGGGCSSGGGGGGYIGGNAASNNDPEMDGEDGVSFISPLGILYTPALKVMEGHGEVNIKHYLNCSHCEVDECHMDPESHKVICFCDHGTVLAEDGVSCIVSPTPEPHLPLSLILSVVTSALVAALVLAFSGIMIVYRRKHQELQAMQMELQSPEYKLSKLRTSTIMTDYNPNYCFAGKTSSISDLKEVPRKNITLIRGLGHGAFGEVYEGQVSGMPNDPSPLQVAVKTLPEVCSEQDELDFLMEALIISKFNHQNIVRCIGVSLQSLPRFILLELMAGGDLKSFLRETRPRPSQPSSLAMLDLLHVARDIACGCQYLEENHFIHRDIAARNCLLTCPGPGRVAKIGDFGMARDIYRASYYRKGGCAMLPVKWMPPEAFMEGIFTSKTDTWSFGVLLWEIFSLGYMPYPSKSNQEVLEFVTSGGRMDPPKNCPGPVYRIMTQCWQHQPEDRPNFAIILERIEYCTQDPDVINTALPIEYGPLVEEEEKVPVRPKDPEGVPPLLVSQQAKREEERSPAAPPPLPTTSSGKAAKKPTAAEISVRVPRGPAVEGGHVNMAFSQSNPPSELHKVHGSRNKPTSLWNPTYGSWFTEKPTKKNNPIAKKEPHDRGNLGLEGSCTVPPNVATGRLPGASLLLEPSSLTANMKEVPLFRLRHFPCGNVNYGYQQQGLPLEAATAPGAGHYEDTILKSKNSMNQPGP
Sequence of Proto-oncogene tyrosine-protein kinase Src (Homo sapiens) (P12931 2-536 limits assumed): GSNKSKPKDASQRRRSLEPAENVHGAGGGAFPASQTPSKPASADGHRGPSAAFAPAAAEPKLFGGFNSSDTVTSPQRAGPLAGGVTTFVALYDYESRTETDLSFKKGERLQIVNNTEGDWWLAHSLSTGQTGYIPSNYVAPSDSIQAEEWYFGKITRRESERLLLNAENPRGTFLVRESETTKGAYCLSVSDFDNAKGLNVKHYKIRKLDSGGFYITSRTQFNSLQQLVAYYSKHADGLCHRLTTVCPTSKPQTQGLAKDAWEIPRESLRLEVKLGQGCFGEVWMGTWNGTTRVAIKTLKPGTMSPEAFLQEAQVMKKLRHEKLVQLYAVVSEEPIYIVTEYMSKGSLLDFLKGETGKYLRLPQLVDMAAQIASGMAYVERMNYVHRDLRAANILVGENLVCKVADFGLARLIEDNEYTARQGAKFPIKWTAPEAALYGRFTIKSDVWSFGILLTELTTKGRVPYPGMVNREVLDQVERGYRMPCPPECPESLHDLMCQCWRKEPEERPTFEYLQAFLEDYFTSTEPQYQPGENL
Sequence of Mitogen-activated protein kinase 8 (Homo sapiens) (P45983 whole entry): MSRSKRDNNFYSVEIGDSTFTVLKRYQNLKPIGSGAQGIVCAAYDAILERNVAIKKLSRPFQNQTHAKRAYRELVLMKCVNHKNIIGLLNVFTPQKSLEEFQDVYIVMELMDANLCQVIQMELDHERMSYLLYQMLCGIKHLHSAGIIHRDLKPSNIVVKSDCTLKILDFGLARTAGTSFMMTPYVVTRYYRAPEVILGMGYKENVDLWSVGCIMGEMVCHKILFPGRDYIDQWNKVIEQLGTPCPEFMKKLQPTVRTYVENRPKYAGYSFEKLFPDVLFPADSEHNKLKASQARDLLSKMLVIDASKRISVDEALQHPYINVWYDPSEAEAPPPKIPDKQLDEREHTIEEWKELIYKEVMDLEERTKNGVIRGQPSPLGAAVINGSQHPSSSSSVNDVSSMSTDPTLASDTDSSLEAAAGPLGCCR
Sequence of Hepatocyte growth factor receptor (Homo sapiens) (P08581 whole entry): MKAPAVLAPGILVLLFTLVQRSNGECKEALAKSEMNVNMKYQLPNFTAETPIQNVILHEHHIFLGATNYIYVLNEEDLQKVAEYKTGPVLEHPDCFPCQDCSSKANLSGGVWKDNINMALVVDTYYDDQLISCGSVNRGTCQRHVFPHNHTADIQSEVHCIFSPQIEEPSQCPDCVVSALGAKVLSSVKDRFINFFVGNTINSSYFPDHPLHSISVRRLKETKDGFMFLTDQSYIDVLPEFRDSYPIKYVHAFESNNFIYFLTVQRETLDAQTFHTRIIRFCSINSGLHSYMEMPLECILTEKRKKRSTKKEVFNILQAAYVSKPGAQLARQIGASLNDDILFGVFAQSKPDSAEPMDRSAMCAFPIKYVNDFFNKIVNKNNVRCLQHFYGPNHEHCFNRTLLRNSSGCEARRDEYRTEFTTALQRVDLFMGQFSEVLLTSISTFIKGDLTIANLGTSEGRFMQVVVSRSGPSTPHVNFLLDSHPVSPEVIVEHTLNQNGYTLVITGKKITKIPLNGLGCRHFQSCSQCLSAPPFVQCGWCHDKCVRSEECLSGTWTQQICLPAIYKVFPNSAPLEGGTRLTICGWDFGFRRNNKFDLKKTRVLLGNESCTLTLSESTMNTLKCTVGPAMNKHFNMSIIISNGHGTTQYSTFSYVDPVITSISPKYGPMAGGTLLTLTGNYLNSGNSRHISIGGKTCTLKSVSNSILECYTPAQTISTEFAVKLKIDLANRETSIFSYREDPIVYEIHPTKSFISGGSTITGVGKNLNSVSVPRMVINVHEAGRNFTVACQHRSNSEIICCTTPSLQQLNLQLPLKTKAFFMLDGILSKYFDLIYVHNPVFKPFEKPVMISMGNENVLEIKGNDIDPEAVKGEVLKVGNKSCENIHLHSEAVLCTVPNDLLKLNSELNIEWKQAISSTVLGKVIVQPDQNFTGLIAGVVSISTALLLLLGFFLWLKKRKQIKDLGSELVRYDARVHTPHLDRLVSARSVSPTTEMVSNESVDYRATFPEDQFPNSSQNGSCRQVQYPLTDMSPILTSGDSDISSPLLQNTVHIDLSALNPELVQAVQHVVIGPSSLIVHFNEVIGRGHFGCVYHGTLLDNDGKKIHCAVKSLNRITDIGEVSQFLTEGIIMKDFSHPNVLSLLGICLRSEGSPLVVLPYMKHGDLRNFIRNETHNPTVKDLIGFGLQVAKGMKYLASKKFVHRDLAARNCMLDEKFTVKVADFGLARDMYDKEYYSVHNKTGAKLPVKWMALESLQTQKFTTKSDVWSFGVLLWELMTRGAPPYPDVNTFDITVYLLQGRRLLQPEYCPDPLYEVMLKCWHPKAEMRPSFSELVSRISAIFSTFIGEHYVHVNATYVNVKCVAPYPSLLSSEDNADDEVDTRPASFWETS

Q: With CCCCCCCCCCCCCCC(=O)NC1CCN(C(=O)C2Sc3ccccc3N(CC)C2=O)CC1 (stereo unspecified) as the compound, how does the inhibition [1] read?
A: Its inhibition is 19%.

Q: And the Activity (Mus musculus)?
A: Its Activity is “Non-Toxic”.

Q: What about the inhibition [2] of the same compound?
A: Its inhibition is 39%.

Q: And the inhibition [3]?
A: Its inhibition is 22.5%.

Q: And the inhibition [4]?
A: Its inhibition is 5.1%.

Q: And the inhibition (Homo sapiens [5])?
A: Its inhibition is 36%.

Q: What about the inhibition [6] of the same compound?
A: Its inhibition is 52%.

Q: What about the inhibition [7] of the same compound?
A: The inhibition was 7%.

Q: And the inhibition [8]?
A: The inhibition was 16%.

Q: What about the inhibition (Homo sapiens [9]) of the same compound?
A: The inhibition was 0%.

Q: What about the inhibition (Saccharomyces cerevisiae) of the same compound?
A: Its inhibition is 14%.

Q: What about the inhibition [10] of the same compound?
A: Its inhibition is 19.6%.

Q: What about the Activity (A2780 [11]) of the same compound?
A: The Activity was “Dose-dependent effect”.

Q: What about the inhibition [12] of the same compound?
A: The inhibition was 0%.

Q: What about the Activity [13] of the same compound?
A: Its Activity is “Non-Toxic”.

Q: And the inhibition [14]?
A: Its inhibition is 3.2%.

Q: What about the inhibition [15] of the same compound?
A: Its inhibition is -4.8%.

Q: What about the IC50 (cells) of the same compound?
A: Its IC50 is 8.3 µM.

Q: What about the inhibition in vivo at 30 mg/kg (A2780 [16]) of the same compound?
A: The inhibition in vivo at 30 mg/kg was 37.8%.

Q: And the Activity (A2780 [17])?
A: Its Activity is 83.3%.

Q: And the IC50 [18]?
A: Its IC50 is 22.4 µM.

Q: And the inhibition [19]?
A: Its inhibition is 12%.

Q: What about the inhibition [20] of the same compound?
A: The inhibition was -8%.

Q: And the Activity (A2780 [21])?
A: Its Activity is “Dose-dependent effect”.

Q: And the inhibition [22]?
A: The inhibition was -3%.

Q: What about the inhibition [23] of the same compound?
A: Its inhibition is 34%.

Q: And the inhibition [24]?
A: The inhibition was 7%.

Q: And the inhibition [25]?
A: The inhibition was -1.7%.

Q: What about the Activity (A2780 [26]) of the same compound?
A: The Activity was “Dose-dependent effect”.

Q: What about the inhibition [27] of the same compound?
A: Its inhibition is 0%.

Q: What about the inhibition [28] of the same compound?
A: Its inhibition is 9.3%.

— ChEMBL document CHEMBL4052632 (Eur J Med Chem, 2017)
